Test results reported in patent US20230192661A1, “1, 4, 5, 6-TETRAHYDROPYRIMIDINE-2-AMINE DERIVATIVE” (UBE Corporation, priority 2020, published 2023).

How the values were obtained:
[1] = test system: TGF-β activation (phosphorylated SMAD3); assay: TGF-β activation inhibition test (inhibition of SMAD3 phosphorylation in TFK-1 cells); type: cell-based; conditions: 48 h, fibronectin-coated plate, cultured 2 days, read-out: IC50 (rate of inhibition of phosphorylated SMAD3)
Protocol: In Test Example 3, the inhibition of TGF-β activation by a compound was detected with the inhibition of SMAD3 phosphorylation as an index. In Test Example 3, the same reagents as in Test Example 1 were used unless otherwise specified.
Human fibronectin was prepared at 14 μg/mL with PBS and then dispensed at 50 μL/well to a 96-well plate. The plate was left standing at room temperature for 1 hour or longer, followed by the removal of the fibronectin solution. The plate was washed with PBS and used as a coated plate.
A test compound dissolved in DMSO was added to RPMI medium 1640 (manufactured by Thermo Fisher Scientific, Inc., 11875) containing 1% FBS and 1% penicillin/streptomycin/amphotericin B to prepare a medium containing the test compound having a concentration of two times the final concentration. This medium was added at 100 μL/well to the coated plate. TFK-1 cells (Cell Resource Center for Biomedical Research, Institute of Development, Aging and Cancer, Tohoku University) cultured in RPMI medium 1640 containing 10% FBS and 1% penicillin/streptomycin/amphotericin B were suspended in RPMI medium 1640 containing 1% FBS and 1% penicillin/streptomycin/amphotericin B to prepare a cell suspension of 1×10^6 cells/mL. The prepared cell suspension was further added at 100 μL/well and cultured for 2 days in a 5% CO2 incubator (37° C.).
Phosphorylated SMAD3 in the cells thus cultured for 2 days was measured using Phospho-SMAD3 (Ser423/425) cellular kit (manufactured by cisbio, 63ADK025), and a DeltaF value was calculated according to the calculation expression of the kit. Inhibition when 10 μM LY364947 (FUJIFILM Wako Pure Chemical Corp., 123-05981) was added instead of the test compound was defined as 100% inhibition, and inhibition when DMSO was added instead was defined as 0% inhibition. The rate of inhibition of phosphorylated SMAD3 by the test compound was calculated according to the following expression.
Rate of inhibition of phosphorylated SMAD3 (%)=[1−{(DeltaF value in the case of adding the test compound)−(DeltaF value in the case of adding 10 μM LY364947)}/{(DeltaF value in the case of adding DMSO)−(DeltaF value in the case of adding 10 μM LY364947)}]×100
An IC50 value was calculated from the rate of inhibition of phosphorylated SMAD3 by the test compound. A: IC50<10 nM, B: 10 nM≤IC50<50 nM, C: 50 nM≤IC50<100 nM, or D: IC50≥100 nM.

αvβ1 = target: T1, αvβ1 (UniProt G3HZ55+P06756); assay: αvβ1 cell adhesion inhibition test (αv-transfected CHO cells on human fibronectin); type: cell-based; conditions: human fibronectin coating, 1 mM MnCl2, 1 hour, read-out: IC50 (rate of inhibition of cell adhesion, αvβ1)
T1 construct: expressed in transfected cells; host or cells: CHO cells deficient in α5 gene, transfected with αv gene
Protocol: Test Example 1 was performed by partially modifying the method of Reed et al. (Sci Transl Med., 7 (288), 288ra79, 2015).
Human fibronectin (manufactured by Sigma-Aldrich Co. LLC, F0895) was prepared at 1.25 μg/mL with phosphate buffered saline (PBS), dispensed at 100 μL/well to a 96-well plate, and left standing overnight. The plate was washed with Hanks' balanced salt solution (HBSS), then subjected to blocking treatment with Dulbecco's modified Eagle medium (DMEM) containing 1% bovine serum-derived albumin (BSA) (FUJIFILM Wako Pure Chemical Corp., for cell culture, 017-22231), and used as a coated plate in the adhesion test.
αv-transfected cells (CHO cells deficient in α5 gene and transfected with αv gene) cultured in Ham's F-12 medium (FUJIFILM Wako Pure Chemical Corp., 087-08335) containing 10% fetal bovine serum (FBS), 1% penicillin/streptomycin/amphotericin B (manufactured by Thermo Fisher Scientific, Inc., 15240), 1 mM GlutaMAX Supplement (manufactured by Thermo Fisher Scientific, Inc., 35050), and 400 μg/mL hygromycin B (FUJIFILM Wako Pure Chemical Corp., 080-07683) were recovered and suspended in DMEM containing 1 mM MnCl2 (manufactured by Sigma-Aldrich Co. LLC, M1787) to prepare a cell suspension. A test compound dissolved in DMSO was added thereto.
The cell suspension of 1×10^6 cells/mL containing the test compound was added at 100 μL/well to the coated plate and left standing for 1 hour in a 5% CO2 incubator (37° C.). One hour later, the supernatant was removed, and the plate was washed with HBSS. The cells that adhered to each well in the plate were stained with crystal violet, and the cells were lysed, followed by absorbance measurement. Inhibition without substrate coating was defined as 100% inhibition, and inhibition when DMSO was added instead of the test compound was defined as 0% inhibition. The rate of inhibition of cell adhesion by the test compound was calculated according to the following expression.
Rate of inhibition of cell adhesion (%)=[1−{(Absorbance in the case of adding the test compound)−(Absorbance without substrate coating)}/{(Absorbance in the case of adding DMSO)−(Absorbance without substrate coating)}]×100
An IC50 value was calculated from the rate of inhibition of cell adhesion by the test compound. A: IC50<3 nM, B: 3 nM≤IC50<10 nM, C: 10 nM≤IC50<30 nM, D: 30 nM≤IC50<100 nM, or E: IC50≥100 nM.

T1 sequence (P06756 31-889 limits assumed): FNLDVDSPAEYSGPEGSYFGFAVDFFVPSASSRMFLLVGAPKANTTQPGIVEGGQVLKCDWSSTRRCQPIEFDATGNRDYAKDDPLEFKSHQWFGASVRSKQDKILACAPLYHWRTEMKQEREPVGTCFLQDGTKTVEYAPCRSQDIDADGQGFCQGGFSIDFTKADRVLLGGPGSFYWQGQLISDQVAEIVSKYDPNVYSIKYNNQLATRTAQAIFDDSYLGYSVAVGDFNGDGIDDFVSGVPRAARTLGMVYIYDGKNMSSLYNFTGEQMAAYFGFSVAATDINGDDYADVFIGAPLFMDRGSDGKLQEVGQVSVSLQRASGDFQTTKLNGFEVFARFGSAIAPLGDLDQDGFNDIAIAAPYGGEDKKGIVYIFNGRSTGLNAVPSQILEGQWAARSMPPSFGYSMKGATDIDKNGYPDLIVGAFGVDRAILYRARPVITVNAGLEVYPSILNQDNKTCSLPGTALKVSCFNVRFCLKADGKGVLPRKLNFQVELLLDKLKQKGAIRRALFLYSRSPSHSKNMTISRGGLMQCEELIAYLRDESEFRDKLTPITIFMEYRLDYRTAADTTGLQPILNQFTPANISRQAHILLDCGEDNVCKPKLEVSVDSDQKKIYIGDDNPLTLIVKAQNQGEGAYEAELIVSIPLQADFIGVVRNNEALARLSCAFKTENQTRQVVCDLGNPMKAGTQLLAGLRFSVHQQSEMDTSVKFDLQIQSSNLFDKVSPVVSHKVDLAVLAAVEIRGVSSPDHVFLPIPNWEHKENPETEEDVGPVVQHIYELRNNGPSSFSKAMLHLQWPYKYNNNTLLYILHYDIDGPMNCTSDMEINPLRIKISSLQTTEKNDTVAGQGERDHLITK
T1 sequence (P06756 891-1048 limits assumed): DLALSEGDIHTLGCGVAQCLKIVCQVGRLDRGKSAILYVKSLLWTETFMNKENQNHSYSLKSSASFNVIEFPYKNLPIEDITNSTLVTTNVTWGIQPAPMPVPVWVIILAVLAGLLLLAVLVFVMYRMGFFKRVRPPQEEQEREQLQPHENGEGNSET
T1 sequence (G3HZ55 21-798): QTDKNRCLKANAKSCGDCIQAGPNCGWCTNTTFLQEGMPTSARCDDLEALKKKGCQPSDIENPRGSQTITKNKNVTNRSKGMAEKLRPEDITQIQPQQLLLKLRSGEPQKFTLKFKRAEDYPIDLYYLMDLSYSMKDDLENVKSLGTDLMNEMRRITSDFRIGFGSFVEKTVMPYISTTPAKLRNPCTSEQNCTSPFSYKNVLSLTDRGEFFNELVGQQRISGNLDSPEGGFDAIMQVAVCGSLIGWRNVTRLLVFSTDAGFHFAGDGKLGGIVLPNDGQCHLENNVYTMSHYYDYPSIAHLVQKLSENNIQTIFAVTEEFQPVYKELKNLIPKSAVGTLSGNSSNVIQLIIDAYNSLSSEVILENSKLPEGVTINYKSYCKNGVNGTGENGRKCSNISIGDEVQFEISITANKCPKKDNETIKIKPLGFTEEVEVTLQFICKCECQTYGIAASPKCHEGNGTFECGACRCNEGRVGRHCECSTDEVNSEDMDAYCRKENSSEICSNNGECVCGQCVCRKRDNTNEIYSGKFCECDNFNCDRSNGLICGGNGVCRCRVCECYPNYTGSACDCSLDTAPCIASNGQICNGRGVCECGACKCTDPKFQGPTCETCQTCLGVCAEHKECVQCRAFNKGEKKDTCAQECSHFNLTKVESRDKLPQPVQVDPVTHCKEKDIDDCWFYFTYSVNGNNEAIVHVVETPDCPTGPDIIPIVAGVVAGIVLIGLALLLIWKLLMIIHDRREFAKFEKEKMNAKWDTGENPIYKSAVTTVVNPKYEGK

Compound | IC50 [1] | IC50 (αvβ1)
O=C(O)C[C@H](NC(=O)CNC(=O)c1cc(NC2=NCC(F)CN2)c2cn[nH]c2c1)c1cc(Cl)cc(C(F)(F)F)c1 (stereo partly drawn) [Example 1-(b), (3S)-3-(3-chloro-5-(trifluoromethyl)phenyl)-3-(2-(4-((5-fluoro-1,4,5,6-tetrahydropyrimidin-2-yl)amino)-1H-indazole-6-carboxamido)acetamido)propanoic acid] | < 0.01 µM | < 0.003 µM
O=C(O)C[C@H](NC(=O)CNC(=O)c1cc(NC2=NCC(F)CN2)c2cn[nH]c2c1)c1cc(Br)cc(C(F)(F)F)c1 (stereo partly drawn) [Example 2-(b), (3S)-3-(3-bromo-5-(trifluoromethyl)phenyl)-3-(2-(4-((5-fluoro-1,4,5,6-tetrahydropyrimidin-2-yl)amino)-1H-indazole-6-carboxamido)acetamido)propanoic acid] | < 0.01 µM | 0.003 to 0.01 µM
O=C(O)C[C@H](NC(=O)CNC(=O)c1cc(NC2=NCC(F)CN2)c2cn[nH]c2c1)c1cc(I)cc(C(F)(F)F)c1 (stereo partly drawn) [Example 3-(b), (3S)-3-(2-(4-((5-fluoro-1,4,5,6-tetrahydropyrimidin-2-yl)amino)-1H-indazole-6-carboxamido)acetamido)-3-(3-iodo-5-(trifluoromethyl)phenyl)propanoic acid] | < 0.01 µM | 0.003 to 0.01 µM
Cc1cc([C@H](CC(=O)O)NC(=O)CNC(=O)c2cc(NC3=NCC(F)CN3)c3cn[nH]c3c2)cc(C(F)(F)F)c1 (stereo partly drawn) [Example 4-(b), (3S)-3-(2-(4-((5-fluoro-1,4,5,6-tetrahydropyrimidin-2-yl)amino)-1H-indazole-6-carboxamido)acetamido)-3-(3-methyl-5-(trifluoromethyl)phenyl)propanoic acid] | < 0.01 µM | 0.003 to 0.01 µM
COc1cc([C@H](CC(=O)O)NC(=O)CNC(=O)c2cc(NC3=NCC(F)CN3)c3cn[nH]c3c2)cc(C(F)(F)F)c1 (stereo partly drawn) [Example 5-(b), (3S)-3-(2-(4-((5-fluoro-1,4,5,6-tetrahydropyrimidin-2-yl)amino)-1H-indazole-6-carboxamido)acetamido)-3-(3-methoxy-5-(trifluoromethyl)phenyl)propanoic acid] | 0.01 to 0.05 µM | < 0.003 µM
O=C(O)C[C@H](NC(=O)CNC(=O)c1cc(NC2=NCC(F)CN2)c2cn[nH]c2c1)c1cc(F)cc(C(F)(F)F)c1 (stereo partly drawn) [Example 6-(b), (3S)-3-(2-(4-((5-fluoro-1,4,5,6-tetrahydropyrimidin-2-yl)amino)-1H-indazole-6-carboxamido)acetamido)-3-(3-fluoro-5-(trifluoromethyl)phenyl)propanoic acid] | 0.01 to 0.05 µM | < 0.003 µM
O=C(O)C[C@H](NC(=O)CNC(=O)c1cc(NC2=NCC(F)CN2)c2cn[nH]c2c1)c1cc(C(F)(F)F)cc(C(F)(F)F)c1 (stereo partly drawn) [Example 7-(b), (3S)-3-(3,5-bis(trifluoromethyl)phenyl)-3-(2-(4-((5-fluoro-1,4,5,6-tetrahydropyrimidin-2-yl)amino)-1H-indazole-6-carboxamido)acetamido)propanoic acid] | < 0.01 µM | < 0.003 µM
O=C(O)C[C@H](NC(=O)CNC(=O)c1cc(NC2=NCC(F)CN2)c2cn[nH]c2c1)c1cc(-n2cccn2)cc(C(F)(F)F)c1 (stereo partly drawn) [Example 8-(b), (3S)-3-(3-(1H-pyrazol-1-yl)-5-(trifluoromethyl)phenyl)-3-(2-(4-((5-fluoro-1,4,5,6-tetrahydropyrimidin-2-yl)amino)-1H-indazole-6-carboxamido)acetamido)propanoic acid] | < 0.01 µM | < 0.003 µM
O=C(O)C[C@H](NC(=O)CNC(=O)c1cc(NC2=NCC(F)CN2)c2cn[nH]c2c1)c1cccc(C(F)(F)F)c1F (stereo partly drawn) [Example 9-(b), (3S)-3-(2-(4-((5-fluoro-1,4,5,6-tetrahydropyrimidin-2-yl)amino)-1H-indazole-6-carboxamido)acetamido)-3-(2-fluoro-3-(trifluoromethyl)phenyl)propanoic acid] | 0.05 to 0.1 µM | 0.003 to 0.01 µM
